This is an account of results in patent US7846903B2, “Type II cubic liquid crystal composition” (National Institute of Advanced Industrial Science and …, priority 2004, dated 2010).

Each structure is given as a SMILES string.

Data set [1] in a line: Krafft temperature (TK) by DSC of amphiphilic compound/water system. The data set is classed as physicochemical. Conditions: for Krafft temperature (° C.): amphiphilic compound alone; for TK (Krafft temperature): compound/water system. As to the method: Liquid crystals such as cubic liquid crystals formed by amphiphilic lipids are formed only at the Krafft temperature (TK), as determined depending on types and concentrations of amphiphilic lipids, or higher. Furthermore, liquid crystals generally undergo a phase transition upon changes in the concentration of the amphiphilic lipid or temperature. Accordingly, the maximal temperature (Tmax) at which a given liquid crystal structure can be stably present is also determined depending on lipid type and concentration of amphiphilic lipid. Thus, a liquid crystal structure formed by a given type of amphiphilic lipid is stably formed in the temperature range between TK and Tmax. The correlation between TK-Tmax and the concentration of the amphiphilic lipid is generally indicated as a “concentration-temperature dependent phase diagram” of the amphiphilic lipid/water system. The Krafft temperature of the amphiphilic lipid can be determined by a method known in the art, such as a method involving the preparation of such a phase diagram (e.g., Laughlin, R. G., “The Aqueous Phase Behavior of Surfactants,” 1994, Academic Press London, pp. 106-117). The Krafft temperature of a mixture of two or more amphiphilic lipids can be determined by the same method.
In the cubic liquid crystal composition of the present invention, stable bicontinuous type II cubic liquid crystals are formed at low temperatures, such as lower than 6° C. In the liquid crystal composition of the present invention, stable bicontinuous type II cubic liquid crystals are typically formed between −10° C. (or at the freezing temperature of the aqueous medium used or higher) and 80° C., and preferably between 0° C. and 50° C. The Krafft temperature of the amphiphilic lipid can be easily determined by, for example, DSC assay of an aqueous solution containing 1% to 85% by mass of amphiphilic lipid or by observing the melting behavior of the amphiphilic lipid under a (polarizing) microscope. More precisely, such temperature may be determined in accordance with a conventional technique involving the preparation of a phase diagram (e.g., Laughlin, R. G., “The Aqueous Phase Behavior of Surfactants,” 1994, Academic Press, London, pp. 106-117).
The Krafft temperatures of these amphiphilic compounds and mixtures thereof determined by the analyses described below are shown in Table 2-1 and Table 2-2.
Subsequently, the sample of mono-O-(phytanyl)pentaerythritol/water system was subjected to differential scanning calorimetry (DSC) in a temperature range between −45° C. and 70° C. DSC analysis employed the Seiko SSC/560U differential scanning calorimeter (Seiko Instruments Inc.). The sample of mono-O-(phytanyl)pentaerythritol/water system (72.4% by mass) prepared by the above method was sealed in a DSC cell, and the sample was incubated while cooling at −45° C. for 3 hours to thoroughly form a hydrated solid of mono-O-(phytanyl)pentaerythritol (hereafter abbreviated as “hydrated solid”). Subsequently, this hydrated solid was heated at a rate of temperature increase of 0.5° C./minute and a melting behavior of the hydrated solid was inspected by DSC analysis. As a result, an endothermic peak resulting from melting of the hydrated solid that begins at around −40° C. and ends at around −27° C. and an endothermic peak resulting from ice melting observed between −10° C. and 1° C. were observed, as shown in FIG. 4. In FIG. 4, the left peak is the endothermic peak resulting from melting of the hydrated solid and the right peak is the endothermic peak resulting from ice melting. Although analysis was conducted up to 70° C., other thermal transition was not observed. Substantially the same results were obtained at other concentrations. Thus, the TK of mono-O-(phytanyl)pentaerythritol was concluded to be 0° C. or lower.
On the technique in general: DSC measures the heat that a sample takes up or gives off during a temperature scan.

A short description of data set [2]: Formation and structure of cubic liquid crystals by polarizing microscopy (penetration method) and SAXS. The data set is classed as physicochemical. The conditions noted are these: for liquid crystal phase formed: mixed with water, polarizing microscopy and/or SAXS. An excerpt:
Whether or not the amphiphilic lipid/water system forms cubic liquid crystals and whether or not such composition is type I or II can be easily determined by the penetration method. A small amount (several mg) of amphiphilic lipids is placed on a glass slide for a microscope, and slight pressure is applied with a glass cover to form a thin layer of amphiphilic lipids (diameter: about 1 to 5 mm) with a thickness of about 10 μm in the gap between the glass slide and the glass cover. Upon addition of water or an aqueous medium from a side of the gap between the glass slide and the glass cover by capillary action, water gradually invades the amphiphilic lipid thin layer from the exterior edge, and a water content gradient is formed from the amphiphilic lipid thin layer/water interface toward the inside of the amphiphilic lipid thin layer. Polarizing microscopic observation thereof enables the determination of a phase type formed depending on the concentration of the amphiphilic lipid/water system. […] In FIG. 2, 4 regions are observed. The rightmost region in the photograph indicates a water region, and the other regions indicate hydrous amphiphilic lipid regions. In the photograph, the rightmost regions indicates the highest water content and the leftmost region indicates a region of amphiphilic lipids that has not yet been penetrated by water. […] Since cubic liquid crystals are stably formed at the interface of excess water and the amphiphilic lipid portion, such crystals are found to be of type II.
To this end, whether or not the liquid crystal structure has cubic lattices may be investigated by the small-angle x-ray scattering (SAXS) assay. In this process, a sample of an amphiphilic lipid/water system at a given concentration may be introduced into a quartz X-ray capillary tube, the capillary may be sealed with an oxygen burner, and the resultant may be subjected to the SAXS assay.
The cubic liquid crystal composition of the present invention is not particularly limited. […] Thus, spaces and lattice constants can be easily determined. The peak values of small angle X-ray scattering or the cubic lattice size of cubic liquid crystals in the presence of an excess aqueous solvent are at constant levels regardless of the lipid concentration. The coexistence state of cubic liquid crystals and an excess aqueous medium can be confirmed by the SAXS assay. Thus, whether or not the cubic liquid crystals are of type II can be easily determined.
In equations, nL and nW are actually measurable, and ac can be measured by the SAXS experiment. Thus, the dhc value can be determined based on equations (ii) and (iii). […] Based on such comparison, whether or not the cubic liquid crystal structure is of a bicontinuous type can be determined.
Mono-O-(3,7,11,15-tetramethylhexadecyl)pentaerythritol (hereafter referred to as “mono-O-(phytanyl)pentaerythritol,” formula (5) above) and pure water were introduced into a mixing device, and incubation was carried out while performing 100 or more times of mixing operations at room temperature (23° C.) over the period of 48 hours. Thus, a homogeneously mixed sample of mono-O-(phytanyl)pentaerythritol/water system was obtained. This sample of mono-O-(phytanyl)pentaerythritol/water system appeared to be a transparent gel composition.
Subsequently, the thus obtained sample of mono-O-(phytanyl)pentaerythritol/water system (the concentration of the amphiphilic compound: 74.6% by mass) was observed by polarizing microscopy. In entire region of the lipid portions, optically isotropic textures peculiar to the cubic liquid crystals were observed (FIG. 3). In FIG. 3, the right region indicates water and the left region indicates the sample of mono-O-(phytanyl)pentaerythritol/water system. […] Such observation indicates the formation of cubic liquid crystals.
Subsequently, the sample of mono-O-(phytanyl)pentaerythritol/water system was confirmed to be a cubic liquid crystal by small-angle x-ray scattering (SAXS). […]

The mark [3] stands for this setting: lipid alone, total amphiphilic compound content 60% by mass (excess water).

For `CC(C)CCCC(C)CCCC(C)CCOCC(O)C(O)CO` (stereo not shown) [formula (2), 1-O-(3,7,11-trimethyldodecyl)erythritol], the “Krafft temperature (° C.)” value in data set [1] is 0 °C or lower.

`CC(C)CCCC(C)CCCC(C)CCCCOCC(CO)(CO)CO` (stereo not shown) [formula (12), mono-O-(5,9,13-trimethyltetradecyl)pentaerythritol]: in data set [1], the “Krafft temperature (° C.)” value was 0 °C or lower and the “TK (Krafft temperature)” value is at most 0 °C.

Consider `CC(C)CCCC(C)CCCC(C)CCCC(C)CCCC(=O)OCC(O)C(O)CO` (stereo not shown) [formula (7), 1-O-(5,9,13,17-tetramethyloctadecanoyl)erythritol], for which, in data set [1], the “Krafft temperature (° C.)” value is 0 °C or lower and the “TK (Krafft temperature)” value is at most 0 °C.

For the molecule `CC(C)CCCC(C)CCCC(C)CCCC(C)CCOCC(O)CO` (stereo not shown) [1-O-(3,7,11-15-tetramethylhexadecyl)glycerol, reference compound], the “liquid crystal phase formed” value in data set [2] is “type II hexagonal liquid crystals”.

On to `CC(C)CCCC(C)CCCC(C)CCCC(C)CCCCOC1OC[C@@H](O)C(O)C1O` (stereo partly drawn) [formula (10), 1-O-(5,9,13,17-tetramethyloctadecyl)-β-D-xylopyranoside], for which the “Krafft temperature (° C.)” value in data set [1] was 0 °C or lower. Besides, in data set [1], the “TK (Krafft temperature)” value was at most 0 °C. Further, the lattice constant in data set [2] (61.5% by mass, 1° C.) came to 10.1 nm; in data set [2] (61.5% by mass, 30° C.), 9.9 nm; in data set [2] (61.5% by mass, 40° C.), 9.5 nm.

Consider `CC(C)CCCC(C)CCCC(C)CCCCOCC(O)C(O)CO` (stereo not shown) [formula (3), 1-O-(5,9,13-trimethyltetradecyl)erythritol], for which, in data set [1], the “Krafft temperature (° C.)” value was 0 °C or lower. Also, in data set [1], the “TK (Krafft temperature)” value was at most 0 °C. The lattice constant worked out at 17.3 nm in data set [2] (Ia3d, 53.7% by mass, 20° C.); 17.2 nm in data set [2] (Ia3d, 53.7% by mass, 35° C.); 17.1 nm in data set [2] (Ia3d, 53.7% by mass, 40° C.). Further, in data set [2] (Table 6, 53.7% by mass, Ia3d + Pn3m), the “Temperature at which formation of cubic liquid crystals was observed (° C.)” value (“Temperature at which formation” below) is on record as 40 (Ia3d + Pn3m cubic liquid crystals) ° C.

With `CC(C)CCCC(C)CCCC(C)CCCC(C)CCCC(=O)OC[C@H](O)[C@H]1OC(=O)C(O)=C1O` (stereo partly drawn) [formula (15), 6-O-(5,9,13,17-tetramethyloctadecanoyl)-L-ascorbic acid], in data set [1], the “Krafft temperature (° C.)” value was 0 °C or lower. In data set [1], the “TK (Krafft temperature)” value was at most 0 °C. Also, the lattice constant was 17.4 nm in data set [2] (Ia3d, 69% by mass, 30° C.); 16.9 nm in data set [2] (Ia3d, 69% by mass, 40° C.); 17.0 nm in data set [2] (Ia3d, 69% by mass, 50° C.); 12.2 nm in data set [2] (Pn3m, 61% by mass, 1° C.); 12.2 nm in data set [2] (Pn3m, 61% by mass, 20° C.); 12.1 nm in data set [2] (Pn3m, 61% by mass, 30° C.). For the same molecule, the lattice constant worked out at 11.4 nm in data set [2] (Pn3m, 61% by mass, 40° C.); 11.0 nm in data set [2] (Pn3m, 61% by mass, 50° C.); 10.1 nm in data set [2] (Pn3m, 61% by mass, 60° C.). In data set [2] (Table 13, 69% by mass, two-phase system of Pn3m and Ia3d cubic liquid crystals), the “Temperature at which formation” value is 20 (Two-phase system of Pn3m and Ia3d ° C.

Turning to `CC(C)CCCC(C)CCCC(C)CCCC(C)CC(=O)OCC(O)C(O)CO` (stereo not shown) [formula (4), 1-O-(3,7,11,15-tetramethylhexadecanoyl)erythritol], in data set [1], the “Krafft temperature (° C.)” value is 0 °C or lower. The “TK (Krafft temperature)” value in data set [1] was at most 0 °C. Also, the lattice constant in data set [2] (Pn3m, 52.3% by mass, 1° C.) turned out to be 11.4 nm; in data set [2] (Pn3m, 52.3% by mass, 25° C.), 11.3 nm; in data set [2] (Pn3m, 52.3% by mass, 45° C.), 10.1 nm.

As to `CC(C)CCCC(C)CCCC(C)CCCC(C)CCOCC(CO)(CO)CO` (stereo not shown) [formula (5), mono-O-(3,7,11,15-tetramethylhexadecyl)pentaerythritol], in data set [1], the “Krafft temperature (° C.)” value is 0 °C or lower and the “TK (Krafft temperature)” value is at most 0 °C. Further, the “maximal temperature at which the cubic liquid crystal structure is formed” value in data set [2] was determined as 40 °C. The lattice constant in data set [2] (56.7% by mass, Pn3m cubic liquid crystals, 1° C.) is given as 8.2 nm. The molecule further registered a lattice constant in data set [2] (74.6% by mass, Ia3d cubic liquid crystals, 1° C.) of 12.3 nm. For the same molecule, the “Temperature at which formation” value in data set [2] (74.6% by mass, two-phase system of Ia3d and Pn3m cubic liquid crystals) was 25 (Two-phase system of Ia3d and Pn3m cubic ° C. The “dhc value of bilayer membrane of the cubic liquid crystal structure” value in data set [2] (calculated based on SAXS results) was 1.17±0.1 nm. Besides, in data set [2] (setting [3]), the “diameter of the water channel of the cubic liquid crystals” value amounted to 2.5 nm and the “lattice constant of the cubic liquid crystals” value turned out to be 7.06 nm.

For `CC(C)CCCC(C)CCCC(C)CCCC(C)CCCCOCC(CO)(CO)CO` (stereo not shown) [formula (8), mono-O-(5,9,13,17-tetramethyloctadecyl)pentaerythritol], in data set [1], the “Krafft temperature (° C.)” value is 0 °C or lower and the “TK (Krafft temperature)” value was at most 0 °C. Besides, in data set [2], the “liquid crystal phase formed” value is “bicontinuous type II Pn3m cubic liquid crystals”.

Turning to `CC(C)CCCC(C)CCCC(C)CCCC(C)CCOC1OC[C@@H](O)C(O)C1O` (stereo partly shown) [formula (11)], the “Krafft temperature (° C.)” value in data set [1] is 0 °C or lower. For the same molecule, the “TK (Krafft temperature)” value in data set [1] (listed as α-XP) is at most 0 °C. In addition, the lattice constant is recorded as 9.8 nm in data set [2] (84.2% by mass, 1° C.); 9.7 nm in data set [2] (84.2% by mass, 25° C.); 9.6 nm in data set [2] (84.2% by mass, 40° C.). The “Temperature at which formation” value in data set [2] (Table 12, 78.0% by mass, Ia3d) was 1 (Ia3d cubic liquid crystals) ° C.
